Reference: ChEMBL document CHEMBL4334465, “SAR Studies on Aromatic Acylhydrazone-Based Inhibitors of Fungal Sphingolipid Synthesis as Next-Generation Antifungal Agents” (J Med Chem, 2019)
Activity calls are given as the source filed them. The calls are words filed in the database; no cut-off is given here.

Test system: Cryptococcus neoformans
Assay: Antifungal activity against Cryptococcus neoformans H99 infected in CBA/J mouse assessed as increase in survival at 1.2 mg/kg, ip
Type: functional, organism-based
Conditions: var grubii H99

O=C(N/N=C/c1cc(Br)cc(Br)c1O)c1ccc(Br)cc1
Activity: Active
